Source: patent publication US20120101083A1, “S1P1 AGONISTS COMPRISING A BICYCLIC N-CONTAINING RING” (GLAXO GROUP LIMITED, priority 2009, published 2012)
Where a name gives a salt, the structure may show the parent alone.

The compounds below were run against T1, S1P1 receptor (S1P1 expressing RH7777 membranes) (Homo sapiens, UniProt P21453) (assay: S1P1 GTPγS assay). Details: S1P1 GTPγS assay, first format, [35S]-GTPγS 0.5 nM.
T1 construct: expressed in transfected cells; host or cells: RH7777 cells (membranes)
Assay type: biochemical
Experimental: The potencies and efficacies of the compounds of this invention for the S1P1 receptor can be determined by GTPγS assay performed on the human cloned receptor as described herein.
Membrane preparation for S1P1 GTPγS assay
All steps were performed at 4° C. Cells were homogenised within a glass Waring blender for 2 bursts of 15 secs in 200 mls of buffer (50 mM HEPES, 1 mM leupeptin, 25 μg/ml bacitracin, 1 mM EDTA, 1 mM PMSF, 2 μM pepstatin A). The blender was plunged into ice for 5 mins after the first burst and 10-40 mins after the final burst to allow foam to dissipate. The material was then spun at 500 g for 20 mins and the supernatant spun for 36 mins at 48,000 g. The pellet was resuspended in the same buffer as above but without PMSF and pepstatin A. The material was then forced through a 0.6 mm needle, made up to the required volume, (usually x4 the volume of the original cell pellet), aliquoted and stored frozen at −80° C.
S1P1 expressing RH7777 membranes (1.5 μg/well) membranes (1.5 μg/well) were homogenised by passing through a 23 G needle. These were then adhered to WGA-coated SPA beads (0.125 mg/well) in assay buffer (HEPES 20 mM, MgCl2 10 mM, NaCl 100 mM and pH adjusted to 7.4 using KOH 5M). GDP 10 μM FAC and saponin 90 μg/ml FAC were also added
After 30 minutes precoupling on ice, the bead and membrane suspension was dispensed into white Greiner polypropylene LV 384-well plates (5 μl/well), containing […] of compound. 5 μl/well [^35S]-GTPγS (0.5 nM for S1P1 or 0.3 nM for S1P3 final radioligand concentration) made in assay buffer was then added to the plates. The final assay cocktail (10.1 μl) was then sealed, spun on a centrifuge, then read immediately on a Viewlux instrument.
Alternatively, after 30 minutes precoupling on ice, the bead and membrane suspension was mixed with ^35S]-GTPγS (0.5 nM final radioligand concentration) in assay buffer (HEPES 20 mM, MgCl2 10 mM, NaCl 100 mM and pH adjusted to 7.4 using KOH 5M) in a 1:1 ratio. The bead, membrane and radioligand suspension was dispensed into white Greiner polypropylene low volume 384-well plates (10 μl/well), containing 0.1 μl of a solution of test compound in 100% DMSO. The final assay cocktail (10.1 μl) was then sealed, spun on a centrifuge, then read immediately on a Viewlux instrument.

T1 sequence (P21453 whole entry): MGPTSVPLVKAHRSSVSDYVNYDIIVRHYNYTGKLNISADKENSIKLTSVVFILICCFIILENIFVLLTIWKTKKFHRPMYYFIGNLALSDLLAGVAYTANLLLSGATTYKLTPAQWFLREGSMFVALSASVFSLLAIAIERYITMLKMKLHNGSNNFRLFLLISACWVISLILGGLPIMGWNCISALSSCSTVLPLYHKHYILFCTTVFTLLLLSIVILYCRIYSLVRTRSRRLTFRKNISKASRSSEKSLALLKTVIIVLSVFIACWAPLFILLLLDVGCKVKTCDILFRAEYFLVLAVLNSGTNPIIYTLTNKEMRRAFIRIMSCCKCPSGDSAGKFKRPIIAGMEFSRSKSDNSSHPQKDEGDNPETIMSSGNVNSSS

Row | EC50 [nM] | SMILES
1 | 2000 | Cc1c(-c2nnc(-c3ccc(OC(C)C)c(C#N)c3)s2)ccc2c1CCN(CC(O)CO)C2 (centres unmarked) [Example 18, 5-{5-[2-(2,3-Dihydroxypropyl)-5-methyl-1,2,3,4-tetrahydro-6-isoquinolinyl]-1,3,4-thiadiazol-2-yl}-2-[(1-methylethyl)oxy]benzonitrile]

Same assay, conditions: tested in one of the above S1P1 assays (two GTPγS formats)

Row | EC50 [nM] | SMILES
2 | ≤ 1000 | CCCNc1ncc(-c2nc(-c3ccc4c(c3C)CCN(C(CO)CO)CC4)no2)cc1C#N [Example 149, 5-(3-{3-[2-hydroxy-1-(hydroxymethyl)ethyl]-6-methyl-2,3,4,5-tetrahydro-1H-3-benzazepin-7-yl}-1,2,4-oxadiazol-5-yl)-2-(propylamino)-3-pyridinecarbonitrile]
3 | ≤ 1000 | Cc1c(-c2nnc(-c3ccc(OC(C)C)c(C#N)c3)s2)ccc2c1CCN(CCCO)C2 [Example 16, 5-{5-[2-(3-Hydroxypropyl)-5-methyl-1,2,3,4-tetrahydro-6-isoquinolinyl]-1,3,4-thiadiazol-2-yl}-2-[(1-methylethyl)oxy]benzonitrile]
4 | ≤ 1000 | CC(C)Oc1ccc(-c2nc(-c3ccc4c(c3)CCN(C(=O)[C@](C)(N)CO)CC4)no2)cc1C#N [Example 84, 2-[(1-methylethyl)oxy]-5-{3-[3-(2-methyl-D-seryl)-2,3,4,5-tetrahydro-1H-3-benzazepin-7-yl]-1,2,4-oxadiazol-5-yl}benzonitrile]
5 | ≤ 100 | CC(C)Nc1ccc(-c2nc(-c3ccc4c(c3)CCN(C(=O)CN)CC4)no2)cc1C#N [Example 52, 5-[3-(3-glycyl-2,3,4,5-tetrahydro-1H-3-benzazepin-7-yl)-1,2,4-oxadiazol-5-yl]-2-[(1-methylethyl)amino]benzonitrile]
6 | ≤ 100 | CC(C)Nc1ccc(-c2nc(-c3ccc4c(c3)CCN(CC(O)CO)CC4)no2)cc1C#N (centres unmarked) [Example 49, 5-{3-[3-(2,3-dihydroxypropyl)-2,3,4,5-tetrahydro-1H-3-benzazepin-7-yl]-1,2,4-oxadiazol-5-yl}-2-[(1-methylethyl)amino]benzonitrile]
7 | ≤ 100 | CCCNc1ccc(-c2nc(-c3ccc4c(c3)CCN(C(=O)CN)CC4)no2)cc1C#N [Example 53, 5-[3-(3-glycyl-2,3,4,5-tetrahydro-1H-3-benzazepin-7-yl)-1,2,4-oxadiazol-5-yl]-2-(propylamino)benzonitrile]
8 | ≤ 100 | CCOc1ccc(-c2nc(-c3ccc4c(c3)CCN(C(=O)CN)CC4)no2)cc1C#N [Example 61, 2-(ethyloxy)-5-[3-(3-glycyl-2,3,4,5-tetrahydro-1H-3-benzazepin-7-yl)-1,2,4-oxadiazol-5-yl]benzonitrile]
9 | ≤ 1000 | N#Cc1cc(-c2nc(-c3ccc4c(c3)CCN(CC(O)CO)CC4)no2)ccc1N1CCC(F)C1 (centres unmarked) [Example 55, 5-{3-[3-(2,3-dihydroxypropyl)-2,3,4,5-tetrahydro-1H-3-benzazepin-7-yl]-1,2,4-oxadiazol-5-yl}-2-(3-fluoro-1-pyrrolidinyl)benzonitrile]
10 | ≤ 10 | CC(C)Oc1ncc(-c2nc(-c3ccc4c(c3)CCN(C(CO)CO)CC4)no2)cc1C#N [Example 95, 5-(3-{3-[2-hydroxy-1-(hydroxymethyl)ethyl]-2,3,4,5-tetrahydro-1H-3-benzazepin-7-yl}-1,2,4-oxadiazol-5-yl)-2-[(1-methylethyl)oxy]-3-pyridinecarbonitrile]
11 | ≤ 100 | CCCNc1ccc(-c2nc(-c3ccc4c(c3)CCN(CC(O)CO)CC4)no2)cc1C#N (centres unmarked) [Example 50, 5-{3-[3-(2,3-dihydroxypropyl)-2,3,4,5-tetrahydro-1H-3-benzazepin-7-yl]-1,2,4-oxadiazol-5-yl}-2-(propylamino)benzonitrile]
12 | ≤ 1000 | CNC(=O)CCCN1CCc2c(ccc(-c3nnc(-c4ccc(OC(C)C)c(C#N)c4)s3)c2C)C1 [Example 14, 4-[6-(5-{3-Cyano-4-[(1-methylethyl)oxy]phenyl}-1,3,4-thiadiazol-2-yl)-5-methyl-3,4-dihydro-2(1H)-isoquinolinyl]-N-methylbutanamide]
13 | ≤ 1000 | Cc1c(-c2nnc(-c3ccc(OC(C)C)c(C#N)c3)s2)ccc2c1CCN(CCCC(N)=O)C2 [Example 13, 4-[6-(5-{3-Cyano-4-[(1-methylethyl)oxy]phenyl}-1,3,4-thiadiazol-2-yl)-5-methyl-3,4-dihydro-2(1H)-isoquinolinyl]butanamide]
14 | ≤ 100 | Cc1c(-c2nnc(-c3ccc(OC(C)C)c(C#N)c3)s2)ccc2c1CCN(CCO)C2 [Example 15, 5-{5-[2-(2-Hydroxyethyl)-5-methyl-1,2,3,4-tetrahydro-6-isoquinolinyl]-1,3,4-thiadiazol-2-yl}-2-[(1-methylethyl)oxy]benzonitrile]
15 | ≤ 100 | Cc1c(-c2noc(-c3ccc(OC(C)C)c(C#N)c3)n2)ccc2c1CCN(C(=O)CN)CC2 [Example 140, 5-[3-(3-glycyl-6-methyl-2,3,4,5-tetrahydro-1H-3-benzazepin-7-yl)-1,2,4-oxadiazol-5-yl]-2-[(1-methylethyl)oxy]benzonitrile hydrochloride]
16 | ≤ 1000 | CCCNc1ncc(-c2nc(-c3ccc4c(c3)CCN(C[C@H](O)CO)CC4)no2)cc1C#N [Example 143, 5-(3-{34[(2S)-2,3-dihydroxypropyl]-2,3,4,5-tetrahydro-1H-3-benzazepin-7-yl}-1,2,4-oxadiazol-5-yl)-2-(propylamino)-3-pyridinecarbonitrile hydrochloride]
17 | > 10000 | Cc1c(-c2nnc(-c3ccc(OC(C)C)c(C#N)c3)s2)ccc2c1CCN(CC(O)CO)C2 (centres unmarked) [Example 18, 5-{5-[2-(2,3-Dihydroxypropyl)-5-methyl-1,2,3,4-tetrahydro-6-isoquinolinyl]-1,3,4-thiadiazol-2-yl}-2-[(1-methylethyl)oxy]benzonitrile]
18 | ≤ 1000 | CC(C)Oc1ccc(-c2nnc(-c3cccc4c3CCN(CCO)C4)s2)cc1C#N [Example 38, 5-{5-[2-(2-hydroxyethyl)-1,2,3,4-tetrahydro-5-isoquinolinyl]-1,3,4-thiadiazol-2-yl}-2-[(1-methylethyl)oxy]benzonitrile]
19 | > 10000 | N#Cc1cc(-c2nc(-c3ccc4c(c3)CCN(CC(O)CO)CC4)no2)ccc1N1CC(F)C1 (centres unmarked) [Example 104, 5-{3-[3-(2,3-dihydroxypropyl)-2,3,4,5-tetrahydro-1H-3-benzazepin-7-yl]-1,2,4-oxadiazol-5-yl}-2-(3-fluoro-1-azetidinyl)benzonitrile]
20 | ≤ 100 | CC(C)Oc1ncc(-c2nc(-c3ccc4c(c3)CCN(CC(O)CO)CC4)no2)cc1C#N (stereo in doubt) [Example 97, 5-(3-{3-[(2R)-2,3-dihydroxypropyl]-2,3,4,5-tetrahydro-1H-3-benzazepin-7-yl}-1,2,4-oxadiazol-5-yl)-2-[(1-methylethyl)oxy]-3-pyridinecarbonitrile]
21 | ≤ 100 | CC(C)Oc1ccc(-c2nc(-c3ccc4c(c3)CCN(CC(O)CO)CC4)no2)cc1C#N (centres unmarked) [Example 27, 5-{3-[3-(2,3-Dihydroxypropyl)-2,3,4,5-tetrahydro-1H-3-benzazepin-7-yl]-1,2,4-oxadiazol-5-yl}-2-[(1-methylethyl)oxy]benzonitrile]
22 | ≤ 1000 | CC(C)Oc1ccc(-c2nnc(-c3ccc4c(c3)CCN(CCO)CC4)s2)cc1C#N [Example 28, 5-{5-[3-(2-Hydroxyethyl)-2,3,4,5-tetrahydro-1H-3-benzazepin-7-yl]-1,3,4-thiadiazol-2-yl}-2-[(1-methylethyl)oxy]benzonitrile hydrochloride]
23 | ≤ 1000 | COC(=O)NCCCN1CCc2ccc(-c3noc(-c4ccc(OC(C)C)c(C#N)c4)n3)cc2CC1 [Example 102, methyl {3-[7-(5-{3-cyano-4-[(1-methylethyl)oxy]phenyl}-1,2,4-oxadiazol-3-yl)-1,2,4,5-tetrahydro-3H-3-benzazepin-3-yl]propyl}carbamate]
24 | ≤ 1000 | CC(C)Oc1ccc(-c2nc(-c3cccc4c3CCN(CCC(N)=O)CC4)no2)cc1C#N [Example 32, 3-[6-(5-{3-Cyano-4-[(1-methylethyl)oxy]phenyl}-1,2,4-oxadiazol-3-yl)-1,2,4,5-tetrahydro-3H-3-benzazepin-3-yl]propanamide]
25 | ≤ 1000 | CC(C)Oc1ccc(-c2nc(-c3ccc4c(c3)CCN(C(=O)CN3CCOCC3)CC4)no2)cc1C#N [Example 91, 2-[(1-methylethyl)oxy]-5-{3-[3-(4-morpholinylacetyl)-2,3,4,5-tetrahydro-1H-3-benzazepin-7-yl]-1,2,4-oxadiazol-5-yl}benzonitrile hydrochloride]
26 | ≤ 1000 | COCCN1CCc2c(ccc(-c3nnc(-c4ccc(OC(C)C)c(C#N)c4)s3)c2C)C1 [Example 17, 2-[(1-Methylethyl)oxy]-5-(5-{5-methyl-2-[2-(methyloxy)ethyl]-1,2,3,4-tetrahydro-6-isoquinolinyl}-1,3,4-thiadiazol-2-yl)benzonitrile hydrochloride]
